The values that follow come from patent publication US10758534B2 (Vertex Pharmaceuticals Incorporated, priority 2014, dated 2020).

The target of this experiment is T1, F508del (Homo sapiens, UniProt P13569, DEL508-508).
T1 construct: expressed in transfected cells
The experiment can be described thus: Protocol 2: FRET membrane potential optical assay (VIPR), identification of correction compounds. In kind it is cell-based. A digest of the protocol:
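Corrector readout: membrane-potential FRET (CC2-DMPE donor, DiSBAC2(3) acceptor) on VIPR II after Cl⁻-free gluconate bath with 10 μM forskolin and 20 μM genistein. Before this, F508del-expressing NIH3T3 cells were exposed to test compound for 16 h at 37 °C without serum; 27 °C incubation served as temperature-correction control.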

Where [1] appears, read: F508del CFTR modulator activity, compounds of Table 1, read-out: EC30.
The mark [2] stands for this setting: Table 3, compounds of Table 1 as modulators of CFTR activity, protocol not stated.

Read-outs that look alike come from different tables or passages of the source. A value given as a limit tells only on which side of the number the result lay.

T1 sequence (P13569 with tags, fused parts or gaps DEL508-508): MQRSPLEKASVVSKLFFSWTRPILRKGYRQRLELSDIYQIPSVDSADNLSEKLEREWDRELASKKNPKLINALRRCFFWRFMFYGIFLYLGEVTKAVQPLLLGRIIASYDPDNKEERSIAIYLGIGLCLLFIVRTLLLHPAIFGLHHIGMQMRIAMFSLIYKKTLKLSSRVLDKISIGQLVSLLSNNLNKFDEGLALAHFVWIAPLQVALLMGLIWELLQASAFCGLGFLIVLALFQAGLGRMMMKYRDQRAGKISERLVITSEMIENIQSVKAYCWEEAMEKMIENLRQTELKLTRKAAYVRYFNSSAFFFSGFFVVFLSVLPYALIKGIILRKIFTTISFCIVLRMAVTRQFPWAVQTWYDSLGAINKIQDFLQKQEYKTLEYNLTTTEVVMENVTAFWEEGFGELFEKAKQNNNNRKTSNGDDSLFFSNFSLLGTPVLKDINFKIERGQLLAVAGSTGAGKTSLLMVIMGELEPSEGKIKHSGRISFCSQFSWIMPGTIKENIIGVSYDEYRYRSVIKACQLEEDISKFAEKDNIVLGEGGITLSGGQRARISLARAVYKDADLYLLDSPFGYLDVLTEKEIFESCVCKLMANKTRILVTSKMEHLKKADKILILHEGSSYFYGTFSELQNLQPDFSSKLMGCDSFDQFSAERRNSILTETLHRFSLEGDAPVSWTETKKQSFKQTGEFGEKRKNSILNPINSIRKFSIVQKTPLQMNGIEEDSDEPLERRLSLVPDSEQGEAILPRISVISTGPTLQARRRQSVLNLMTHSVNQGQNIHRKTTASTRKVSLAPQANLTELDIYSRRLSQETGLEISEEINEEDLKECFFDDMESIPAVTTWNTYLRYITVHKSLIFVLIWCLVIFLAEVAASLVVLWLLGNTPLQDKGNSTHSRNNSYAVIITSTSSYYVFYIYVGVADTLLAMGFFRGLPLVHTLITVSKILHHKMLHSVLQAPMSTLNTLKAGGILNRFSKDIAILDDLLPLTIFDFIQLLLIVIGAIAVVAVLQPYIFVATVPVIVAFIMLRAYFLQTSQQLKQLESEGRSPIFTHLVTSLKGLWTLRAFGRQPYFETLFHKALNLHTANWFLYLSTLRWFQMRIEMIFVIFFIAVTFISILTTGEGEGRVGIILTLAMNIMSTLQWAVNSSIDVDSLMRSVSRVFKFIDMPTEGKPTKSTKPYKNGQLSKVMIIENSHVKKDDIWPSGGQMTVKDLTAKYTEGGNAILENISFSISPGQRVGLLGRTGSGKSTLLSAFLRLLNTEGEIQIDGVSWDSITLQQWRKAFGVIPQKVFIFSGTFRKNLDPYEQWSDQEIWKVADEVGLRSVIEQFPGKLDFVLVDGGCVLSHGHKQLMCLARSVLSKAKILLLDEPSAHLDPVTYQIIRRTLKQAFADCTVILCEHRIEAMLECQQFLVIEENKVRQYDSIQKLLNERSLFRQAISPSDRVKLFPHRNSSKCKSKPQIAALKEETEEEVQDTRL

As to `CC(C)COc1cccc(-c2ccc(C(=O)NS(=O)(=O)c3ccc[nH]c3=O)c(N3C[C@@H](C)CC3(C)C)n2)c1` [Compound 2267, 6-(3-isobutoxyphenyl)-N-[(2-oxo-1H-pyridin-3-yl)sulfonyl]-2-[(4S)-2,2,4-trimethylpyrrolidin-1-yl]pyridine-3-carboxamide], under setting [1], the EC30 (as a rule, the point of the concentration-response curve where the effect stands at 30%) was less than 3000 nM.

On to `CC(C)COc1ccccc1-c1ccc(C(=O)NS(=O)(=O)c2cccnc2N)c(N2C[C@@H](C)CC2(C)C)n1` [Compound 2448, N-[(2-amino-3-pyridyl)sulfonyl]-6-(2-isobutoxyphenyl)-2-[(4S)-2,2,4-trimethylpyrrolidin-1-yl]pyridine-3-carboxamide], for which the EC30 under setting [1] was less than 3000 nM.

Consider `Cc1cc(C)c(CN2Cc3ccccc3C2(C)C(=O)NS(=O)(=O)c2ccn[nH]2)c(C)c1` (centres unmarked) [Compound 378, 1-methyl-N-(1H-pyrazol-5-ylsulfonyl)-2-[(2,4,6-trimethylphenyl)methyl]isoindoline-1-carboxamide], for which, under setting [2], the EC30 entry is recorded as “+++ (“+++” means <3 uM)”.

Regarding `Cc1cccc(C)c1Cn1nc(C(C)(C)C)cc1C(=O)NS(=O)(=O)c1ccc(F)c(N)c1` [Compound 150, N-(3-amino-4-fluoro-phenyl)sulfonyl-5-tert-butyl-2-[(2,6-dimethylphenyl)methyl]pyrazole-3-carboxamide], the EC30 entry under setting [2] is listed as “+++ (“+++” means <3 uM)”.

Turning to `Cc1cc(C)c(Oc2nc(C(C)(C)C)ccc2C(=O)NS(=O)(=O)c2ccccc2)c(C)c1` [Compound 341, N-(benzenesulfonyl)-6-tert-butyl-2-(2,4,6-trimethylphenoxy)pyridine-3-carboxamide], the EC30 entry under setting [2] is listed as “+++ (“+++” means <3 uM)”.

For the compound `CC1CN(c2nc(C(C)(C)C)ccc2C(=O)NS(=O)(=O)c2cccc(OCc3ccc4c(c3)OCO4)n2)C(C)(C)C1` (centres unmarked) [Compound 2714], the EC30 under setting [1] is less than 3000 nM.

For `Cc1cc(C)c(Cn2c(C(=O)NS(=O)(=O)c3cccc(N)c3)cc3ccc(Cl)cc32)c(C)c1` [Compound 9, N-(3-aminophenyl)sulfonyl-6-chloro-1-[(2,4,6-trimethylphenyl)methyl]indole-2-carboxamide], the EC30 entry under setting [2] is “+++ (“+++” means <3 uM)”.

Turning to `COc1ccc(OC)c(Nc2cccc(S(=O)(=O)NC(=O)c3cccnc3N3CC(C)CC3(C)C)n2)c1` (centres unmarked) [Compound 2179, N—[[6-(2,5-dimethoxyanilino)-2-pyridyl]sulfonyl]-2-(2,2,4-trimethylpyrrolidin-1-yl)pyridine-3-carboxamide], under setting [1], the EC30 was less than 3000 nM.

With `CC(C)(C)c1ccc(C(=O)NS(=O)(=O)c2cccc(N)c2)c(Oc2ccccc2)n1` [Compound 272, N-(3-aminophenyl)sulfonyl-6-tert-butyl-2-phenoxy-pyridine-3-carboxamide], the EC30 entry under setting [2] is “++ (“++” means between 3 uM and 10 uM)”.

`CC(=O)c1cccc(S(=O)(=O)NC(=O)c2cc(C(C)(C)C)nn2Cc2c(C)cc(C)cc2C)c1` [Compound 332, N-(3-acetylphenyl)sulfonyl-5-tert-butyl-2-[(2,4,6-trimethylphenyl)methyl]pyrazole-3-carboxamide]: under setting [2], the EC30 entry is listed as “+++ (“+++” means <3 uM)”.

`Cc1cc(C)c(Oc2nc(C(C)(C)C)ccc2C(=O)NS(=O)(=O)c2ccc(N)cc2)c(C)c1` [Compound 11, N-(4-aminophenyl)sulfonyl-6-tert-butyl-2-(2,4,6-trimethylphenoxy)pyridine-3-carboxamide]: the EC30 result under setting [2] is “+++ (“+++” means <3 uM)”.

For the compound `CC(C)COc1cc(F)cc(-c2ccc(C(=O)NS(=O)(=O)c3cccc(N)n3)c(OCC3CC3(F)F)n2)c1` (centres unmarked) [Compound 769, N-[(6-amino-2-pyridyl)sulfonyl]-2-[(2,2-difluorocyclopropyl)methoxy]-6-(3-fluoro-5-isobutoxy-phenyl)pyridine-3-carboxamide], under setting [2], the EC30 entry is “+++ (“+++” means <3 uM)”.

As to `C[C@@H]1CN(c2nc(C(C)(C)C)c(C(O)C(O)C3CCCC3)cc2C(=O)NS(=O)(=O)c2cccc(N)n2)C(C)(C)C1` (single isomer, unassigned) [Compound 2661], the EC30 under setting [1] is less than 3000 nM.

As for `CCC1(C)C[C@@H](C)CN1c1nc(-c2cc(F)cc(OCC(C)C)c2)ccc1C(=O)NS(=O)(=O)c1cccc(N)n1` (single isomer, unassigned) [Compound 2058, N-[(6-amino-2-pyridyl)sulfonyl]-2-(2-ethyl-2,4-dimethyl-pyrrolidin-1-yl)-6-(3-fluoro-5-isobutoxy-phenyl)pyridine-3-carboxamide], the EC30 under setting [1] is less than 3000 nM.

In the case of `Cc1cccc(C)c1Cn1c(C(=O)NS(=O)(=O)c2ccccc2)cc2ccccc21` [Compound 2, N-(benzenesulfonyl)-1-[(2,6-dimethylphenyl)methyl]indole-2-carboxamide], the EC30 result under setting [2] is recorded as “+++ (“+++” means <3 uM)”.

Take `CC1CN(c2ncccc2C(=O)NS(=O)(=O)c2cccc(OCc3cccc(F)c3)n2)C(C)(C)C1` (centres unmarked) [Compound 2409, N—[[6-[(3-fluorophenyl)methoxy]-2-pyridyl]sulfonyl]-2-(2,2,4-trimethylpyrrolidin-1-yl)pyridine-3-carboxamide]: under setting [1], the EC30 is less than 3000 nM.

`CC(C)CN(C)c1cccc(S(=O)(=O)NC(=O)c2cccnc2N2CC(C)CC2(C)C)n1` (centres unmarked) [Compound 2746]: under setting [1], the EC30 was less than 3000 nM.

`C[C@@H]1CN(c2ncccc2C(=O)NS(=O)(=O)N2CC[C@@H](NCc3ccc(F)c(OC(F)(F)F)c3)C2)C(C)(C)C1` [Compound 2680]: under setting [1], the EC30 is 3000 to 10000 nM.

For the compound `COc1cccc(-c2ccc(C(=O)NS(=O)(=O)c3ccc[nH]c3=O)c(N3[C@H](C)CC[C@@H]3C)n2)n1` [Compound 781, 2-[(2S,5R)-2,5-dimethylpyrrolidin-1-yl]-6-(6-methoxy-2-pyridyl)-N-[(2-oxo-1H-pyridin-3-yl)sulfonyl]pyridine-3-carboxamide], the EC30 result under setting [2] is “+ (“+” means greater than 10 uM)”.

With `CC1CCCN(c2cccc(S(=O)(=O)NC(=O)c3cccnc3N3CC(C)CC3(C)C)n2)C1` (centres unmarked) [Compound 2030, N—[[6-(3-methyl-1-piperidyl)-2-pyridyl]sulfonyl]-2-(2,2,4-trimethylpyrrolidin-1-yl)pyridine-3-carboxamide], the EC30 under setting [1] was less than 3000 nM.

In the case of `Cc1cc(C)c(Oc2nc(-c3ccc(OC(C)C)cc3)ccc2C(=O)NS(=O)(=O)c2ccc[nH]c2=O)c(C)c1` [Compound 494, 6-(4-isopropoxyphenyl)-N-[(2-oxo-1H-pyridin-3-yl)sulfonyl]-2-(2,4,6-trimethylphenoxy)pyridine-3-carboxamide], under setting [2], the EC30 result is recorded as “+++ (“+++” means <3 uM)”.

As for `CCN(CC)c1cccc(S(=O)(=O)NC(=O)c2cccnc2N2CC(C)CC2(C)C)n1` (centres unmarked) [Compound 2726], under setting [1], the EC30 is less than 3000 nM.

On to `CC(C)COc1cc(F)cc(-c2ccc(C(=O)NS(=O)(=O)c3cccc(N)n3)c(N3CCC(C)C(C)C3)n2)c1` (single isomer, unassigned) [Compound 2062, N-[(6-amino-2-pyridyl)sulfonyl]-2-(3,4-dimethyl-1-piperidyl)-6-(3-fluoro-5-isobutoxy-phenyl)pyridine-3-carboxamide], for which, under setting [1], the EC30 was less than 3000 nM.

Consider `Cc1cc(C)c(Oc2nc(C(C)(C)C)ccc2C(=O)NS(=N)(=O)c2cccc(N)c2)c(C)c1` (single isomer, unassigned) [Compound 19, N-[(3-aminophenyl)sulfonimidoyl]-6-tert-butyl-2-(2,4,6-trimethylphenoxy)pyridine-3-carboxamide], for which, under setting [2], the EC30 entry is listed as “+++ (“+++” means <3 uM)”.

On to `COc1cccc(-c2cnc(N3CC(C)CC3(C)C)c(C(=O)NS(=O)(=O)c3cccc(N)n3)c2)c1` (centres unmarked) [Compound 2031, N-[(6-amino-2-pyridyl)sulfonyl]-5-(3-methoxyphenyl)-2-(2,2,4-trimethylpyrrolidin-1-yl)pyridine-3-carboxamide], for which, under setting [1], the EC30 is less than 3000 nM.

In the case of `Cc1cc(C)c(C(C)n2nc(C(C)(C)C)cc2C(=O)NS(=O)(=O)c2ccccc2)c(C)c1` (centres unmarked) [Compound 201, N-(benzenesulfonyl)-5-tert-butyl-2-[1-(2,4,6-trimethylphenyl)ethyl]pyrazole-3-carboxamide], the EC30 entry under setting [2] is given as “+++ (“+++” means <3 uM)”.

As for `CC(C)Oc1cc(-c2ccc(C(=O)NS(=O)(=O)c3cccc(N)n3)c(N3[C@H](C)CC[C@@H]3C)n2)ccc1Cl` [Compound 788, N-[(6-amino-2-pyridyl)sulfonyl]-6-(4-chloro-3-isopropoxy-phenyl)-2-[(2S,5R)-2,5-dimethylpyrrolidin-1-yl]pyridine-3-carboxamide], the EC30 entry under setting [2] was “+++ (“+++” means <3 uM)”.

As to `CCOc1ccc(-c2nc(N3CC(C)CC3(C)C)c(C(=O)NS(=O)(=O)c3cccc(N)n3)cc2C)cc1` (centres unmarked) [Compound 455, N-[(6-amino-2-pyridyl)sulfonyl]-6-(4-ethoxyphenyl)-5-methyl-2-(2,2,4-trimethylpyrrolidin-1-yl)pyridine-3-carboxamide], the EC30 entry under setting [2] is given as “+++ (“+++” means <3 uM)”.

As to `CCOc1ccc(C)cc1-c1ccc(C(=O)NS(=O)(=O)c2ccc[nH]c2=O)c(N2C[C@@H](C)CC2(C)C)n1` [Compound 2410, 6-(2-ethoxy-5-methyl-phenyl)-N-[(2-oxo-1H-pyridin-3-yl)sulfonyl]-2-[(4S)-2,2,4-trimethylpyrrolidin-1-yl]pyridine-3-carboxamide], the EC30 under setting [1] was less than 3000 nM.

For `CC(C)(C)c1ccc(C(=O)NS(=O)(=O)c2ccc(N)cc2)c(C2CCCCC2)n1` [Compound 537, N-(4-aminophenyl)sulfonyl-6-tert-butyl-2-cyclohexyl-pyridine-3-carboxamide], the EC30 result under setting [2] is “+++ (“+++” means <3 uM)”.

As to `C[C@@H]1CC[C@H](C)N1c1nc(-c2ccc(Cl)cc2)ccc1C(=O)NS(=O)(=O)c1ccc[nH]c1=O` [Compound 760, 6-(4-chlorophenyl)-2-[(2S,5R)-2,5-dimethylpyrrolidin-1-yl]-N-[(2-oxo-1H-pyridin-3-yl)sulfonyl]pyridine-3-carboxamide], the EC30 entry under setting [2] was “++ (“++” means between 3 uM and 10 uM)”.

For the compound `Cc1cc(C(C)(C)C)cc(C)c1Cn1nc(C(C)(C)C)cc1C(=O)NS(=O)(=O)c1cccc(N)c1` [Compound 156, N-(3-aminophenyl)sulfonyl-5-tert-butyl-2-[(4-tert-butyl-2,6-dimethyl-phenyl)methyl]pyrazole-3-carboxamide], the EC30 entry under setting [2] is recorded as “+++ (“+++” means <3 uM)”.
